The source of these data is article PMC11574045, “A cofactor-induced repressive type of transcription factor condensation can be induced by synthetic peptides to suppress tumorigenesis” (The EMBO Journal, 2024).

Several values for one entry are separate records, joined by “and”; a condition that tells them apart may be missing. Equal values may be shown once. Ends that are not written are not given here.

In one assay the target is T1, TEAD4 (Homo sapiens, UniProt Q15561).
T1 construct: His; made in house; host or cells: Escherichia coli BL21(DE3)
In words: Dynamic light scattering (DLS) of TEAD4 oligomerization. The class given is biochemical. Particulars: after 10–20 min incubation with glup (10 μg/ml); TEAD4:glup molar ratio 10:1, 4 °C; DLS at 25 °C. The protocol:
In the case of glup, the mixtures were incubated at 4 °C for various periods of time as indicated in related figures. And then the mixtures were subjected to dynamic light scattering analysis at 25 °C. Scattered light was measured at a 90° angle at a wavelength of 658 nm.

A further assay relates to AGS cells. Type of assay: cell-based, human. The conditions noted are these: 48 h. As for the experimental part: (§1) For cell viability assays, cells were seeded into 96-well plates overnight to attach them to the plates, and then treated with GLUP for 48 h. Cells incubated for indicated periods of time were analyzed using an ATP-based CellTiter-Lumi^TM Plus kit (Beyotime) according to the manufacturer’s instructions. The intracellular ATP contents were measured using a BioTek Synergy^TM NEO multi-detector microplate reader (Thermo). Cell viability was calculated using the equation cell viability (%) = [[value (test) − value (blank)] × [value (control) − value (blank)]] −1 × 100.

Another assay concerns AZ-521 cells. The class given is cell-based, human. Particulars: 48 h. The protocol:
as §1

A further assay relates to BGC-823 cells. Type of assay: cell-based, human. The conditions noted are these: 48 h. As for the experimental part:
as §1

The subject of another assay is GES-1 cells. Type of assay: cell-based, human. Particulars: 48 h. As for the experimental part:
as §1

Another assay relates to HGC-27 cells. Type of assay: cell-based, human. The protocol:
as §1

The next assay concerns MGC-803 cells. The class given is cell-based, human. The conditions noted are these: 48 h. As for the experimental part:
as §1

A further assay relates to SH-10-TC cells. Type of assay: cell-based, human. The conditions noted are these: 48 h. As for the experimental part: as §1
A further assay has as its system SNU-216 cells. Type of assay: cell-based, human. Particulars: 48 h. As for the experimental part: as §1
The next assay relates to HGC-27 xenograft tumors. The assay is described as follows: HGC-27 xenograft tumor formation assay. The class given is in vivo, mouse. Also noted: Tumor volume, GLUP+ / Tumor volume, GLUP++: unit not given here. From the text:
Mice used in this study were from SLAC Laboratory Animal (Shanghai, China), and included 4-week-old BALB/c nude mice (female) and 8-week-old C57BL/6J mice (male and female). Tumors were allowed to grow to an average size of ~60 mm^3 and then the mice were randomly allocated to groups of 5–6 animals. No blinding was used in the treatment schedules for these experiments since the different treatments were identified by different marks on the tail. Based on our previous experience, 5–6 animals per group would provide statistically significant data while keeping the number of animals used to a minimum. Tumor size was determined by taking caliper measurements of tumor length, width and depth; tumor volume was calculated as 0.5236 × length × width × depth (mm^3).
Healthy female BALB/c nude mice were maintained in pathogen-free conditions to which they were allowed to acclimate for 1 week before being used. For the tumor formation assay, tumor cells (1 × 10^6) were injected into the respective flanks of the mice. Mice in which tumors were detected with an average size of ~60 mm^3 were biweekly administered 1 or 5 mg/kg GLUP via subcutaneous injection. These mice were sacrificed after 4 weeks, and tumor volumes were then measured.

T1 sequence (Q15561 whole entry): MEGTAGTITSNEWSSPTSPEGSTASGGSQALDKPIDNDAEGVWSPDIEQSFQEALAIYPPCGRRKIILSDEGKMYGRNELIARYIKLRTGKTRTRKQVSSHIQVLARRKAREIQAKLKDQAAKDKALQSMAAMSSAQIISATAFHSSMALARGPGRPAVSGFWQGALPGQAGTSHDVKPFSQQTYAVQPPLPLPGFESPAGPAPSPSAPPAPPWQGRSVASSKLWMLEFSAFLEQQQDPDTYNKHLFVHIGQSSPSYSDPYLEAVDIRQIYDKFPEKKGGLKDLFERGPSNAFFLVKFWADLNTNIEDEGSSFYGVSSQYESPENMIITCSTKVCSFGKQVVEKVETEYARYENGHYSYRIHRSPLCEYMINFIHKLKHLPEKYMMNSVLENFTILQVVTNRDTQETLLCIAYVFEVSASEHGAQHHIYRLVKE

In the case of “RRVCVHFHFSLSLR-NH2 (C-terminus assumed) [glup]”, the “TEAD4 oligomerization by DLS” value on TEAD4 is recorded as “formed dimers or oligomers of high molecular weight”. Also, the IC50 came out at 34 µg/mL in the assay with AGS cells; 8.1 µg/mL in the assay on AZ-521 cells; 26.1 µg/mL in the assay with BGC-823 cells; 13.1 µg/mL with GES-1 cells; 2.5 µg/mL in the assay with MGC-803 cells; 26.3 µg/mL in the assay on SH-10-TC cells. In addition, the IC50 in the assay with SNU-216 cells came to 23.4 µg/mL. In the assay on HGC-27 cells (HGC-27, 0.1 µg/ml GLUP, 48 h (peer review file, Figure R22C)), the Cell death was approximately 60%. Moreover, the “Suppression of cell growth with or without YAP (5SA) overexpression” value in the assay with HGC-27 cells (HGC-27, 0.1/1 µg/ml GLUP (peer review file, Figure R23)) is given as “regardless of YAP (5SA) expression”. The “Growth of xenografted tumors” value with HGC-27 xenograft tumors (1 or 5 mg/kg GLUP) is listed as “inhibited growth of xenografted tumors in a dose-dependent manner”. Further, the “Tumor volume, GLUP+” value with HGC-27 xenograft tumors (nude mice, 1 mg/kg GLUP s.c. biweekly, individual mice, n = 5 (source data Fig 7E), 1 mg/kg) was 0.858 and 0.629 and 0.519 and 0.753 and 0.732. For the same substance, the “Tumor volume, GLUP++” value in the assay with HGC-27 xenograft tumors (nude mice, 5 mg/kg GLUP s.c. biweekly, individual mice, n = 5 (source data Fig 7E), 5 mg/kg) was 0.345 and 0.321 and 0.256 and 0.423 and 0.503.
